The record followed here is patent US7348440B2, “Mitotic kinesin inhibitors” (Merck & Co., Inc., priority 2002, dated 2008).

Where two headings read alike, the source gives them in different places.

The target in this assay is T1, human KSP motor domain (KSP(367H)) (Homo sapiens, UniProt P52732).
T1 construct: were used to amplify the motor domain and the neck linker region; made in house; host or cells: E. coli BL21 (DE3), pRSETa vector
T1 sequence (P52732 18-359 limits assumed): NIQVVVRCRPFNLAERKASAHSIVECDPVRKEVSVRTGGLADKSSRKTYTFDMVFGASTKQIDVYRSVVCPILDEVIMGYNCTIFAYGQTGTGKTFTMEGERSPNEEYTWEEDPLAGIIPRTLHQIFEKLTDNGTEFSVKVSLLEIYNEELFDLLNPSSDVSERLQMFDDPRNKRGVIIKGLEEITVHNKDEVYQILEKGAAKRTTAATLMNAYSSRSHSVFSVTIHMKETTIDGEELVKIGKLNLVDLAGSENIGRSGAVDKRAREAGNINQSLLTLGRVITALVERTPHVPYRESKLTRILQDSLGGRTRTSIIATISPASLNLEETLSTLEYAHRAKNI
Put plainly: Kinesin ATPase In Vitro Assay. The assay is classed as biochemical. As to the method: I. Kinesin ATPase In Vitro Assay
The N-terminal primer 5′-[…] (SEQ.ID.NO.: 1) and the C-terminal primer 5′-[…] […] (SEQ.ID.NO.: 2) were used to amplify the motor domain and the neck linker region. The PCR products were digested with AseI and XhoI, ligated into the NdeI/XhoI digestion product of pRSETa (Invitrogen) and transformed into E. coli BL21 (DE3).
Cells were grown at 37° C. to an OD600 of 0.5. After cooling the culture to room temperature expression of KSP was induced with 100 μM IPTG and incubation was continued overnight. Cells were pelleted by centrifugation and washed once with ice-cold PBS. Pellets were flash-frozen and stored −80° C.
Cell pellets were thawed on ice and resuspended in lysis buffer (50 mM K-HEPES, pH 8.0, 250 mM KCl, 0.1% Tween, 10 mM imidazole, 0.5 mM Mg-ATP, 1 mM PMSF, 2 mM benzimidine, 1× complete protease inhibitor cocktail (Roche)). Cell suspensions were incubated with 1 mg/ml lysozyme and 5 mM β-mercaptoethanol on ice for 10 minutes, followed by sonication (3×30 sec). All subsequent procedures were performed at 4° C. Lysates were centrifuged at 40,000×g for 40 minutes. Supernatants were diluted and loaded onto an SP Sepharose column (Pharmacia, 5 ml cartridge) in buffer A (50 mM K-HEPES, pH 6.8, 1 mM MgCl2, 1 mM EGTA, 10 μM Mg-ATP, 1 mM DTT) and eluted with a 0 to 750 mM KCl gradient in buffer A. Fractions containing KSP were pooled and incubated with Ni-NTA resin (Qiagen) for one hour. The resin was washed three times with buffer B (Lysis buffer minus PMSF and protease inhibitor cocktail), followed by three 15-minute incubations and washes with buffer B. Finally, the resin was incubated and washed for 15 minutes three times with buffer C (same as buffer B except for pH 6.0) and poured into a column. KSP was eluted with elution buffer (identical to buffer B except for 150 mM KCl and 250 mM imidazole). KSP-containing fractions were pooled, made 10% in sucrose, and stored at −80° C.
Microtubules are prepared from tubulin isolated from bovine brain. Purified tubulin (>97% MAP-free) at 1 mg/ml is polymerized at 37° C. in the presence of 10 μM paclitaxel, 1 mM DTT, 1 mM GTP in BRB80 buffer (80 mM K-PIPES, 1 mM EGTA, 1 mM MgCl2 at pH 6.8). The resulting microtubules are separated from non-polymerized tubulin by ultracentrifugation and removal of the supernatant. The pellet, containing the microtubules, is gently resuspended in 10 μM paclitaxel, 1 mM DTT, 50 μg/ml ampicillin, and 5 μg/ml chloramphenicol in BRB80.
The kinesin motor domain is incubated with microtubules, 1 mM ATP (1:1 MgCl2: Na-ATP), and compound at 23° C. in buffer containing 80 mM K-HEPES (pH 7.0), 1 mM EGTA, 1 mM DTT, 1 mM MgCl2, and 50 mM KCl. The reaction is terminated by a 2-10 fold dilution with a final buffer composition of 80 mM HEPES and 50 mM EDTA (or, alternately, with a 1:1 addition of reaction volume to stop buffer(1.8M KCl and 50 mM EDTA)). Free phosphate from the ATP hydrolysis reaction is measured via a quinaldine red/ammonium molybdate assay by adding a 1.5 times volume of quench C (e.g., to a mixture of 40 μl reaction volume+40 μl stop buffer is then added 120 μl quench C). […] Quench C is a 2:1 ratio of quench A:quench B The reaction is incubated for 5-10 minutes at 23° C., and the absorbance of the phospho-molybdate complex is measured at 540 nm.

Where [1] appears, read: kinesin motor domain incubated with microtubules, 1 mM ATP and compound at 23° C., free phosphate by quinaldine red/ammonium molybdate, absorbance 540 nm, read-out: IC50.

With `CC(C)(N)C(=O)N1CC(c2cc(F)ccc2F)=CC1c1ccccc1` (stereo not shown) [12-1, 1-[4-(2,5-difluorophenyl)-2-phenyl-2,5-dihydro-1H-pyrrol-1-yl]-2-methyl-1-oxopropan-2-amine], the IC50 (in general, the concentration needed to halve the response being measured) under setting [1] was at most 50 µM. Turning to `CC(C)(O)C(=O)N1CC(c2cc(F)ccc2F)=CC1c1ccccc1` (stereo not shown) [11-1, 1-[4-(2,5-difluorophenyl)-2-phenyl-2,5-dihydro-1H-pyrrol-1-yl]-2-methyl-1-oxopropan-2-ol], the IC50 under setting [1] is at most 50 µM. Regarding `CCS(=O)(=O)C(C)CN1CC(c2cc(F)ccc2F)=C[C@H]1c1ccccc1` (single isomer, unassigned) [38-1], the IC50 under setting [1] is at most 50 µM. Take `CN(CC1CCNCC1)C(=O)N1CC(c2cc(F)ccc2F)=C[C@H]1c1ccccc1` [18a-6, (2S)-4-(2,5-Difluorophenyl)-N-methyl-2-phenyl-N-(piperidin-4-ylmethyl)-2,5-dihydro-1H-pyrrole-1-carboxamide]: under setting [1], the IC50 was at most 50 µM. For `CN(C(=O)N1CC(c2cc(Cl)ccc2F)=C[C@H]1c1ccccc1)[C@@H]1CCNC1` [18b-8, (2S)-4-(5-Chloro-2-fluorophenyl)-N-methyl-2-phenyl-N-[(3R)-pyrrolidin-3-yl]-2,5-dihydro-1H-pyrrole-1-carboxamide], the IC50 under setting [1] was at most 50 µM. As to `CC(C)(C)OC(=O)N1CC(OS(=O)(=O)C(F)(F)F)=C[C@H]1c1ccccc1` [compound 54, (2S)-tert-butyl 2-phenyl-4-{[(trifluoromethyl)sulfonyl]oxy}-2,5-dihydro-1H-pyrrole-1-carboxylate], the IC50 under setting [1] is at most 50 µM. `CN(C(=O)N1CC(c2cc(F)ccc2F)=C[C@H]1c1ccccc1)C1CCNCC1` [18-4, (2S)-4-(2,5-Difluorophenyl)-N-methyl-2-phenyl-N-piperidin-4-yl-2,5-dihydro-1H-pyrrole-1-carboxamide]: the IC50 was at most 50 µM.

Turning to `CN(C)CCS(=O)(=O)N1CC(c2cc(F)ccc2F)=CC1c1ccccc1` (stereo not shown) [8-2, 2-{[4-(2,5-difluorophenyl)-2-phenyl-2,5-dihydro-1H-pyrrol-1-yl]sulfonyl}-N,N-dimethylethanamine], under setting [1], the IC50 was at most 50 µM. Turning to `CC(=O)N1CC(c2cc(F)ccc2F)=CC1c1ccccc1` (stereo not shown) [9-1, 1-acetyl-4-(2,5-difluorophenyl)-2-phenyl-2,5-dihydro-1H-pyrrole], the IC50 under setting [1] is at most 50 µM. On to `NCCS(=O)(=O)N1CC(c2cc(F)ccc2F)=CC1c1ccccc1` (stereo not shown) [7-2, 2-{[4-(2,5-difluorophenyl)-2-phenyl-2,5-dihydro-1H-pyrrol-1-yl]sulfonyl}ethanamine], for which the IC50 under setting [1] is at most 50 µM. Consider `CN(C)C(=O)N1CC(c2cc(F)ccc2Cl)=CC1c1ccccc1` (stereo not shown) [1-6, 4-(2-chloro-5-fluorophenyl)-N,N-dimethyl-2-phenyl-2,5-dihydro-1H-pyrrole-1-carboxamide], for which the IC50 under setting [1] is at most 50 µM. As to `CN(C)C(=O)N1CC(c2cc(C(F)(F)F)ccc2F)C=C1c1ccccc1` (stereo not shown) [3-2, 3-[2-fluoro-5-(trifluoromethyl)phenyl]-N,N-dimethyl-5-phenyl-2,3-dihydro-1H-pyrrole-1-carboxamide], under setting [1], the IC50 is at most 50 µM. Same read-out and setting: the same measure for `[C-]#[N+]c1ccc(F)c(C2=CC(c3ccccc3)N(C(=O)N(C)C)C2)c1` (stereo not shown) [13-1, 4-(2-fluoro-5-isocyanophenyl)-N,N-dimethyl-2-phenyl-2,5-dihydro-1H-pyrrole-1-carboxamide]: at most 50 µM.
